Measured values from ChEMBL document CHEMBL1156014, “Synthesis of antibacterial pseudopeptides with less hemolytic activity from a cytotoxic peptide and their pH-dependent activity” (Bioorg Med Chem Lett, 2009).
In brackets after ≈: the same amount, converted by molar mass. Where a SMILES comes first, the peptide text is derived from it. The star is where a group is joined. X2 = CC(C)C[C@H](NC[C@H](CCCCN)N*)C(=O)N[C@@H](CC(C)C)C(=O)N[C@@H](CCCCN)C(N)=O

Experiments:
Micrococcus luteus [1] = experiment: Antibacterial activity against Micrococcus luteus ATCC 9341 at pH 8.4; assay type: functional
Micrococcus luteus [2] = experiment: Antibacterial activity against Micrococcus luteus ATCC 9341 at pH 7.4; assay type: functional
Staphylococcus aureus [3] = experiment: Antibacterial activity against Staphylococcus aureus ATCC 6538 at pH 7.4; assay type: functional
Staphylococcus aureus [4] = experiment: Antibacterial activity against Staphylococcus aureus ATCC 6538 at pH 8.4; assay type: functional
Escherichia coli [5] = experiment: Antibacterial activity against Escherichia coli ATCC 25922 at pH 7.4; assay type: functional
Escherichia coli [6] = experiment: Antibacterial activity against Escherichia coli ATCC 25922 at pH 8.4; assay type: functional
Pseudomonas aeruginosa [7] = experiment: Antibacterial activity against Pseudomonas aeruginosa ATCC 9027 at pH 7.4; assay type: functional
Pseudomonas aeruginosa [8] = experiment: Antibacterial activity against Pseudomonas aeruginosa ATCC 9027 at pH 8.4; assay type: functional
[9] = Toxicity in human erythrocytes assessed as hemolytic activity up to 200 ug/ml at pH 7.4 after 1 hr; assay type: cell-based; details: erythrocyte, pH 7.4, 1 h
[10] = Permeability across Escherichia coli large unilamellar vesicles assessed as calcein entrapped leakage from phosphatidylglycerol/phosphatidylcholine at pH 7.4; assay type: ADME
[11] = Permeability across Escherichia coli large unilamellar vesicles assessed as calcein entrapped leakage from phosphatidylglycerol/phosphatidylcholine at pH 8.4; assay type: ADME
[12] = Permeability across Escherichia coli large unilamellar vesicles assessed as calcein entrapped leakage from phosphatidylglycerol/phosphatidylcholine at 7.5 uM at pH 7.4; assay type: ADME; details: pH 7.4, 7.5 µM
[13] = Permeability across Escherichia coli large unilamellar vesicles assessed as calcein entrapped leakage from phosphatidylglycerol/phosphatidylcholine at 15 uM at pH 8.4; assay type: ADME; details: pH 8.4, 15 µM

Compound | MIC (Micrococcus luteus [1]) | MIC (Micrococcus luteus [2]) | MIC (Staphylococcus aureus [3]) | MIC (Staphylococcus aureus [4]) | MIC (Escherichia coli [5]) | MIC (Escherichia coli [6]) | MIC (Pseudomonas aeruginosa [7]) | MIC (Pseudomonas aeruginosa [8]) | Activity [9] | Activity [10] | Activity [11] | Activity [12] | Activity [13]
CC(=O)N[C@@H](CCCCN)C(=O)N[C@@H](CC(C)C)C(=O)N[C@@H](CC(C)C)C(=O)N[C@@H](CC(C)C)C(=O)N[C@@H](CCCCN)C(=O)N[C@@H](CC(C)C)C(=O)N[C@@H](Cc1c[nH]c2ccccc12)C(=O)N[C@@H](CC(C)C)C(=O)N[C@@H](CCCCN)CN[C@@H](CC(C)C)C(=O)N[C@@H](CC(C)C)C(=O)N[C@@H](CCCCN)C(N)=O (Ac-KLLLKLWL-X2) | 6.25 µg/mL (≈ 4.07 µM) | 6.25 µg/mL (≈ 4.07 µM) | 6.25 µg/mL (≈ 4.07 µM) | 12.5 µg/mL (≈ 8.14 µM) | 12.5 µg/mL (≈ 8.14 µM) | 25 µg/mL (≈ 16.3 µM) | 50 µg/mL (≈ 32.5 µM) | 50 µg/mL (≈ 32.5 µM) | Not Active | Dose-dependent effect | Dose-dependent effect |  | 
Ac-KLLLKLWLKLLK-NH2 | 6.25 µg/mL | 6.25 µg/mL | 6.25 µg/mL | 25 µg/mL | 12.5 µg/mL | 50 µg/mL | 50 µg/mL | 50 µg/mL |  | Dose-dependent effect | Dose-dependent effect | 90% | 80%
